We go through 10 molecules from publication PMC6001824, “Expressional and functional interactions of two Apis cerana cerana olfactory receptors” (PeerJ, 2018).

Where two headings read alike, the source gives them in different places.

Assay [1] deals with T1, AcerOr2 (Apis cerana cerana, UniProt G9J1I3). The format is cell-based. Conditions: for EC50: Sf9 cells expressing AcerOr2, Ca2+ imaging. The procedure:
(§1) Spodoptera frugiperda Sf9 cells were purchased from the Chinese Academy of Sciences Cell Bank (Beyotime, Shanghai, China) were maintained as an adherent culture in Sf-900 III serum-free medium (SFM; Gibco, Invitrogen, Carlsbad, CA, USA) supplemented with 10% fetal bovine serum (Sijiqing, Hangzhou, China) and 100 μg mL^−1 penicillin-streptomycin at a constant temperature of 28 °C in a humidified incubator (Thermo Scientific, Cornelius, OR, USA) in the absence of CO2 in T-25 tissue culture flasks (Corning Inc., Corning, NY, USA). Sf9 cells were grown to approximately 80–90% confluence as observed under a light microscope. Cells were dislodged from the flask by washing with the media contained in the flask. In total, 1 × 10^6 Sf9 cells were suspended in 2 mL of Sf-900 III SFM in each well of a Nunclone six-well tissue culture plate (Corning Inc., Corning, NY, USA). Confluent cells (80–90%) were transiently transfected with 2.0 μg pIB-AcerOr1/pIB-AcerOr2 using 8 μL of Cellfectin II reagent (Invitrogen, Carlsbad, CA, USA) in six-well plates according to the manufacturer’s instructions. The medium containing plasmid DNA and Cellfectin II was removed after incubation of the cells with a DNA/Cellfectin II mix for 3–5 h. The cells were washed twice with fresh Sf-900 III SFM and overlaid with 2 mL of fresh SFM. […] After incubation for 48 h, assays were performed.
(§2) To identify candidate ligands for selected ORs, we tested 32 compounds (most of which were volatile compounds from host plants, including aldehydes, alcohols, monoterpenes, benzoates, and sesquiterpenes) at a final concentration of 10^−6 M by Ca^2+ imaging in an in vitro cell expression system. […] After the cells were transfected for 48 h, the medium was removed and the cells were washed three times with Hank’s balanced salt solution (without Ca^2+). The cells were subsequently cultured at 37 °C in the dark for 30 min in the presence of 2 μmol L^−1 Fluo-4-AM (Beyotime, Shanghai, China) and were stimulated by the chemical odorants. Each test chemical ligand was applied to Fluo-4-loaded Sf9 cells expressing AcerOr1 at a final concentration of 10^−6 M, and the increase in fluorescence caused by the substrate was measured and expressed as a fraction of the fluorescence elicited by the calcium ionophore ionomycin. The Ca^2+-free solution used was Dulbecco’s phosphate buffered saline supplemented with 0.4 mM ethylene glycol tetra-acetic acid (EGTA).
(§3) EC50 values were determined using GraphPad Prism 6.0 (GraphPad; San Diego, CA, USA). The formula used for calculating the concentration-response using a 4-parameter logistic model was as follows: Y=Bottom+(Top−Bottom)/1+10^(LogEC50−X)^*HillSlope where Y and X are the response showing a sigmoid shape and the logarithm of the concentration.

A further assay deals with AcerOr1 (Apis cerana cerana, UniProt G8HAQ8). The format is cell-based. Conditions: for HillSlope: Sf9 cells expressing AcerOr1, 4-parameter logistic fit; for EC50: Sf9 cells expressing AcerOr1, Ca2+ imaging; for Emax: Sf9 cells expressing AcerOr1, concentration-response, 4-parameter logistic fit; for response of AcerOr1-expressing cells (increase in intracellular Ca2+): odorant at 10^−6 M. As to the method: as §1, §2, §3

Assay [2] has as its system antennae of Apis cerana cerana. Description: Electroantennography (EAG) of isolated antennae. As to conditions: 500 μg μL^−1 of compound in liquid paraffin, relative to blank. The procedure:
The level of OR expression in antenna olfactory neurons can be indirectly measured by recording the EAG responses of the isolated antennae to the corresponding odorant ligand. We compared data previously obtained by Ca^2+ imaging in vitro to determine whether these odorants can cause electrophysiological responses in the antennae with physiological activity. […] The compounds were dissolved and diluted in liquid paraffin to final concentrations of 0.1, 1, 10, 100, and 500 μg μL^−1. Pure liquid paraffin wax was used as a blank, and results were calculated relative to the blank. The antennae were carefully cut at the base and placed into EAG electrode probes (Syntech, Hilversum, The Netherlands) with a drop of Spectra 360 electrode gel (Parker Lab, Inc., Fairfield, NJ, USA). Filter paper strips (5 × 50 mm) were loaded with 20 μL of the different test solutions and inserted into glass Pasteur pipettes and served as sources of stimuli. Humidified airflow was delivered at a constant rate of 700 mL min^−1 by an air stimulus controller CS-55 (Syntech, Kirchzarten, Germany). Odor stimuli were administered three times at 2 mL s^−1 for 0.5 s at 30 s intervals. EAG recordings of antennal responses to each stimulus were documented as voltage waveforms using an IDAC-4 computer-operated amplifier controller (Syntech, Kirchzarten, Germany), and the data were analyzed with the EAGPro software (Syntech, Kirchzarten,Germany). A newly prepared antenna was used for each recording. A dose-response curve was plotted using the EAG recordings (in mV) for each concentration.

For assay [3], the target named is T1, AcerOr2. The format is cell-based. Conditions: odorant at 10^−6 M.
The test system of assay [4] is endogenous Orco in Sf9 cells. As to the kind of experiment: Ca2+ imaging of control Sf9 cells transfected with pIB/V5 empty vector. The format is cell-based, Spodoptera frugiperda. As to conditions: odorant at 10^−6 M.

Chain of AcerOr1 (G8HAQ8 entry or part of it): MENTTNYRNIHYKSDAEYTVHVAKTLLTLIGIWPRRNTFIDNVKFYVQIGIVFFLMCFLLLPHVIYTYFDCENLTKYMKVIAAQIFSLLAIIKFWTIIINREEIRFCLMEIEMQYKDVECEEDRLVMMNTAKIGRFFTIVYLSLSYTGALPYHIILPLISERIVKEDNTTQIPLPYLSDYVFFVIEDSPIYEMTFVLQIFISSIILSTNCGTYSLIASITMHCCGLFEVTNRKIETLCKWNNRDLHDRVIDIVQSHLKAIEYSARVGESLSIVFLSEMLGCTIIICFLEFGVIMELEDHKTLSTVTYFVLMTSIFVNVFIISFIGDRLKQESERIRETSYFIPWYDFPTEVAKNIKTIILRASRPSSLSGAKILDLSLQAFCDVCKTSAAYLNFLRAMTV
T1 sequence (G9J1I3 entry or part of it): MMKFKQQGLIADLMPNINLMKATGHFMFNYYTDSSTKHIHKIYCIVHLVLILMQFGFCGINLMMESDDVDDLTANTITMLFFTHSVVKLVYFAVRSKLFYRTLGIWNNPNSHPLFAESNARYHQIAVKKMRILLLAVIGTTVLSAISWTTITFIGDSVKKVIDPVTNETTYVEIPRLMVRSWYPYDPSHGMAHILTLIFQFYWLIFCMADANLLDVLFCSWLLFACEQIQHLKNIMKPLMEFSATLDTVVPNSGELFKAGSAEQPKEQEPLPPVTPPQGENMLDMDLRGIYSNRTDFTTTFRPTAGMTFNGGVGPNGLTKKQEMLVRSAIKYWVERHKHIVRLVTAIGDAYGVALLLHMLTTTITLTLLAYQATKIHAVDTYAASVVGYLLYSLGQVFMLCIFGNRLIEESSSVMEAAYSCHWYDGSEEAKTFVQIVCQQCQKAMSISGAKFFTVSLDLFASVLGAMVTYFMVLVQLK

In the case of `CCCCCCCCCO` [1-Nonanol], the EC50 (commonly the midpoint of the concentration-response curve) on AcerOr2 [1] (read-out: EC50) was above 10 µM. At AcerOr1, the HillSlope is reported as 0.80 ± 0.06, the EC50 is 10^−7 to 10^−8 M, the Emax came to 69.86 ± 0.44 and the “response of AcerOr1-expressing cells (increase in intracellular Ca2+)” value is “elicited responses”.
For `CCCCCCCCO` [1-Octyl alcohol] the same measures were above 10 µM, 0.63 ± 0.04, 10^−7 to 10^−8 M, 106.77 ± 2.01 and “elicited responses”.
On to `C=CCc1ccc(O)c(OC)c1` [Eugenol], for which the EC50 on AcerOr2 [1] was above 10 µM. Moreover, at AcerOr1, the HillSlope amounted to 0.74 ± 0.06, the EC50 is on record as 10^−7 to 10^−8 M, the Emax was determined as 88.53 ± 0.52 and the “response of AcerOr1-expressing cells (increase in intracellular Ca2+)” value was “elicited responses”. Further, the EAG response in assay [2] worked out at 9.92 ± 0.58 mV.
As to `CCCCCCOC(C)=O` [Hexyl acetate], on AcerOr2 [1] (read-out: EC50), the concentration for a half-maximal effect (EC50) was above 10 µM. At AcerOr1, the HillSlope is listed as 0.73 ± 0.05, the EC50 was 10^−7 to 10^−8 M, the Emax was determined as 115.94 ± 1.5 and the “response of AcerOr1-expressing cells (increase in intracellular Ca2+)” value is recorded as “elicited responses”.
Turning to `CCCCCCCCCCCC(=O)O` [Lauric acid], the EC50 at AcerOr2 [1] (read-out: EC50) was above 10 µM. For the same molecule, at AcerOr1, the HillSlope turned out to be 0.49 ± 0.06, the EC50 was 10^−7 to 10^−8 M, the Emax is given as 138.79 ± 0.5 and the “response of AcerOr1-expressing cells (increase in intracellular Ca2+)” value is listed as “elicited responses”. The EC50 at AcerOr1 (read-out: EC50) is 0.0481 µM.
For `CC/C=C\C/C=C\C/C=C\CCCCCCCC(=O)O` [Linolenic acid], at AcerOr2 [1], the half-maximal effective concentration (EC50) was above 10 µM. Besides, at AcerOr1, the HillSlope came to 0.87 ± 0.03, the EC50 was 10^−7 to 10^−8 M, the Emax is reported as 85.74 ± 0.83 and the “response of AcerOr1-expressing cells (increase in intracellular Ca2+)” value is “elicited responses”. For the same molecule, in assay [2], the EAG response was 10 ± 0.54 mV.
Regarding `CC(C)=CCC/C(C)=C\CO` [Nerol], the EC50 at AcerOr2 [1] was above 10 µM. Further, on AcerOr1, the HillSlope was found to be 0.52 ± 0.06, the EC50 was 10^−7 to 10^−8 M, the Emax amounted to 184.92 ± 0.55 and the “response of AcerOr1-expressing cells (increase in intracellular Ca2+)” value was “elicited responses”.
In the case of `C=CC(C)=CCC=C(C)C` [Ocimene], on AcerOr2 [1] (read-out: EC50), the EC50 was above 10 µM. In addition, at AcerOr1, the HillSlope worked out at 0.50 ± 0.09, the EC50 is 10^−7 to 10^−8 M, the Emax is 144.27 ± 0.59 and the “response of AcerOr1-expressing cells (increase in intracellular Ca2+)” value is “elicited responses”. Also, the 50% effective concentration (EC50) at AcerOr1 (read-out: EC50) came to 0.0532 µM.
Consider `CCCCCCCCCCC(=O)O` [Undecanoic acid], for which the EC50 at AcerOr2 [1] (read-out: EC50) was above 10 µM. Also, on AcerOr1, the HillSlope came to 0.73 ± 0.05, the EC50 is recorded as 10^−7 to 10^−8 M, the Emax is 116.69 ± 1.15 and the “response of AcerOr1-expressing cells (increase in intracellular Ca2+)” value was “elicited responses”.
With `CCc1ccc(NC(=O)CSc2nnc(-c3cccnc3)n2CC)cc1` [VUAA1, N-(4-ethylphenyl)-2-((4-ethyl-5-(3-pyridinyl)-4H-1,2,4-triazol-3-yl)thio) acetamide], the “response of cells expressing AcerOr2 alone (increase in intracellular Ca2+)” value on AcerOr2 [3] is “greatest increase in intracellular Ca^2+”. Further, on AcerOr2 [1] (Sf9 cells expressing AcerOr2, 4-parameter logistic fit), the HillSlope was 0.56 ± 0.08. Moreover, the EC50 at AcerOr2 [1] (read-out: EC50) was found to be 0.0662 µM. Moreover, the Emax on AcerOr2 [1] (Sf9 cells expressing AcerOr2, concentration-response, 4-parameter logistic fit) is 241.67 ± 0.74. In addition, on AcerOr1, the HillSlope is listed as 1.72 ± 1.48, the Emax came to 4.64 ± 0.10 and the “response of AcerOr1-expressing cells (increase in intracellular Ca2+)” value is on record as “sensitive”. The same molecule had an EAG response in assay [2] of 18.71 ± 1.45 mV. Moreover, the “response of control cells (pIB/V5 empty vector, endogenous Orco only)” value in assay [4] is given as “unable to respond”.
